ChEMBL document CHEMBL4002635, “A novel monoterpenoid indole alkaloid with anticancer activity from Melodinus khasianus” (Bioorg Med Chem Lett, 2017)

Legend:
K562 = assay: Antiproliferative activity against human K562 cells after 48 hrs by MTT assay; assay type: functional, cell-based; conditions: K562, 48 h
PC-3 [1] = assay: Induction of apoptosis in human PC3 cells assessed as early apoptotic cells at 10 uM after 24 hrs by Annexin-V FITC/7-AAD staining based flow cytometry (reference value: 0.1%); assay type: functional
PC-3 [2] = assay: Induction of apoptosis in human PC3 cells assessed as live cells at 0.1 uM after 24 hrs by Annexin-V FITC/7-AAD staining based flow cytometry (reference value: 98.8%); assay type: functional
PC-3 [3] = assay: Antiproliferative activity against human PC3 cells after 48 hrs by MTT assay; assay type: functional, cell-based; conditions: PC-3, 48 h
PC-3 [4] = assay: Induction of apoptosis in human PC3 cells assessed as caspase 3A negative cells at 1 uM after 24 hrs by flow cytometry (reference value: 97.5%); assay type: functional
PC-3 [5] = assay: Induction of apoptosis in human PC3 cells assessed as late apoptotic cells at 0.1 uM after 24 hrs by Annexin-V FITC/7-AAD staining based flow cytometry (reference value: 0.31%); assay type: functional
PC-3 [6] = assay: Induction of apoptosis in human PC3 cells assessed as late apoptotic cells at 1 uM after 24 hrs by Annexin-V FITC/7-AAD staining based flow cytometry (reference value: 0.31%); assay type: functional
PC-3 [7] = assay: Induction of apoptosis in human PC3 cells assessed as late apoptotic cells at 10 uM after 24 hrs by Annexin-V FITC/7-AAD staining based flow cytometry (reference value: 0.31%); assay type: functional
PC-3 [8] = assay: Induction of apoptosis in human PC3 cells assessed as downregulation of Bcl2 protein expression after 48 hrs by Western blot method; assay type: functional, cell-based
PC-3 [9] = assay: Induction of apoptosis in human PC3 cells assessed as early apoptotic cells at 1 uM after 24 hrs by Annexin-V FITC/7-AAD staining based flow cytometry (reference value: 0.1%); assay type: functional
PC-3 [10] = assay: Induction of apoptosis in human PC3 cells assessed as necrotic cells at 10 uM after 24 hrs by Annexin-V FITC/7-AAD staining based flow cytometry (reference value: 0.02%); assay type: functional
PC-3 [11] = assay: Induction of apoptosis in human PC3 cells assessed as increase in p53 protein expression after 48 hrs by Western blot method; assay type: functional, cell-based
PC-3 [12] = assay: Induction of apoptosis in human PC3 cells assessed as caspase 3A negative cells at 0.1 uM after 24 hrs by flow cytometry (reference value: 97.5%); assay type: functional
PC-3 [13] = assay: Induction of apoptosis in human PC3 cells assessed as live cells at 10 uM after 24 hrs by Annexin-V FITC/7-AAD staining based flow cytometry (reference value: 98.8%); assay type: functional
MDA-MB-231 = assay: Antiproliferative activity against human MDA-MB-231 cells after 48 hrs by MTT assay; assay type: functional, cell-based; conditions: MDA-MB-231, 48 h
PC-3 [14] = assay: Induction of apoptosis in human PC3 cells assessed as necrotic cells at 1 uM after 24 hrs by Annexin-V FITC/7-AAD staining based flow cytometry (reference value: 0.02%); assay type: functional
A549 = assay: Antiproliferative activity against human A549 cells after 48 hrs by MTT assay; assay type: functional, cell-based; conditions: A549, 48 h
PC-3 [15] = assay: Induction of apoptosis in human PC3 cells assessed as live cells at 1 uM after 24 hrs by Annexin-V FITC/7-AAD staining based flow cytometry (reference value: 98.8%); assay type: functional
PC-3 [16] = assay: Induction of apoptosis in human PC3 cells assessed as early apoptotic cells at 0.1 uM after 24 hrs by Annexin-V FITC/7-AAD staining based flow cytometry (reference value: 0.1%); assay type: functional
PC-3 [17] = assay: Induction of apoptosis in human PC3 cells assessed as necrotic cells at 0.1 uM after 24 hrs by Annexin-V FITC/7-AAD staining based flow cytometry (reference value: 0.02%); assay type: functional
PC-3 [18] = assay: Induction of apoptosis in human PC3 cells assessed as caspase 3A positive cells at 10 uM after 24 hrs by flow cytometry (reference value: 2.45%); assay type: functional
PC-3 [19] = assay: Induction of apoptosis in human PC3 cells assessed as increase in caspase-3 protein expression after 48 hrs by Western blot method; assay type: functional, cell-based
PC-3 [20] = assay: Induction of apoptosis in human PC3 cells assessed as caspase 3A positive cells at 1 uM after 24 hrs by flow cytometry (reference value: 2.45%); assay type: functional
PC-3 [21] = assay: Induction of apoptosis in human PC3 cells assessed as caspase 3A negative cells at 10 uM after 24 hrs by flow cytometry (reference value: 97.5%); assay type: functional
PC-3 [22] = assay: Induction of apoptosis in human PC3 cells assessed as increase in active caspase 3A after 24 hrs by flow cytometry; assay type: functional, cell-based
PC-3 [23] = assay: Induction of apoptosis in human PC3 cells assessed as caspase 3A positive cells at 0.1 uM after 24 hrs by flow cytometry (reference value: 2.45%); assay type: functional

For `C/C=C(/CO)[C@H]1C[C@@H]2c3[nH]c4ccccc4c3C[C@H]3N2C(=O)[C@@]13COC`, the IC50 (K562) was 1.22 µM, the Activity (PC-3 [1]) was 6.25% and the Activity (PC-3 [2]) was 98.3%. It also gave an IC50 (PC-3 [3]) of 0.74 µM, an Activity (PC-3 [4]) of 95.9% and an Activity (PC-3 [5]) of 0.56%. The Activity (PC-3 [6]) was 1.14%, the Activity (PC-3 [7]) was 8.97% and the Activity (PC-3 [8]) was “Dose-dependent effect”. The Activity (PC-3 [9]) was 0.7%, the Activity (PC-3 [10]) was 5.05% and the Activity (PC-3 [11]) was “Dose-dependent effect”. It also gave an Activity (PC-3 [12]) of 97.1%, an Activity (PC-3 [13]) of 79.7% and an IC50 (MDA-MB-231) of 1.84 µM. The Activity (PC-3 [14]) was 0.87%, the IC50 (A549) was 3.26 µM and the Activity (PC-3 [15]) was 97.3%. For the same compound, the Activity (PC-3 [16]) was 0.27%, the Activity (PC-3 [17]) was 0.85% and the Activity (PC-3 [18]) was 10.9%. For the same compound, the Activity (PC-3 [19]) was “Dose-dependent effect”, the Activity (PC-3 [20]) was 4.1% and the Activity (PC-3 [21]) was 89.1%. The Activity (PC-3 [22]) was “Dose-dependent effect” and the Activity (PC-3 [23]) was 2.89%.
